Measured values reported in PubChem BioAssay (NCI).
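In this assay, cells in 96-well plates receive the compound at five concentrations for 48 hours. Endpoints are linearly interpolated between the surrounding concentrations. The concentration for full growth arrest is given as TGI.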

Key:
Assay in all cases: NCI-60 cell line screen, 48 h
[1] = tested on: 786-0 renal
[2] = tested on: A498 renal
[3] = tested on: A549 NSCLC
[4] = tested on: ACHN renal
[5] = tested on: BT-549 breast
[6] = tested on: CAKI-1 renal
[7] = tested on: CCRF-CEM leukemia
[8] = tested on: COLO 205 colon
[9] = tested on: DU-145 prostate
[10] = tested on: EKVX NSCLC
[11] = tested on: HCC-2998 colon
[12] = tested on: HCT-116 colon
[13] = tested on: HCT-15 colon
[14] = tested on: HL-60(TB) leukemia
[15] = tested on: HOP-62 NSCLC
[16] = tested on: HOP-92 NSCLC
[17] = tested on: HS 578T breast
[18] = tested on: HT29 colon
[19] = tested on: IGROV1 ovarian
[20] = tested on: KM12 colon
[21] = tested on: LOX IMVI melanoma
[22] = tested on: M14 melanoma
[23] = tested on: MALME-3M melanoma
[24] = tested on: MCF7 breast
[25] = tested on: MDA-MB-231 breast
[26] = tested on: MDA-MB-435
[27] = tested on: MDA-N
[28] = tested on: MOLT-4 leukemia
[29] = tested on: NCI-H226 lung
[30] = tested on: NCI-H23 lung
[31] = tested on: NCI-H460 lung
[32] = tested on: NCI-H522 lung
[33] = tested on: NCI/ADR-RES ovarian
[34] = tested on: OVCAR-4 ovarian
[35] = tested on: OVCAR-5 ovarian
[36] = tested on: OVCAR-8 ovarian
[37] = tested on: PC-3 prostate
[38] = tested on: RXF 393 renal
[39] = tested on: SF-268 CNS
[40] = tested on: SF-295 CNS
[41] = tested on: SF-539 CNS
[42] = tested on: SK-MEL-2 melanoma
[43] = tested on: SK-MEL-28 melanoma
[44] = tested on: SK-MEL-5 melanoma
[45] = tested on: SN12C renal
[46] = tested on: SNB-19 CNS
[47] = tested on: SNB-75 CNS
[48] = tested on: SR leukemia
[49] = tested on: SW-620 colon
[50] = tested on: T-47D breast
[51] = tested on: TK-10 renal
[52] = tested on: U251 CNS
[53] = tested on: UACC-257 melanoma
[54] = tested on: UO-31 renal

## COc1ccc(-c2nnc3n(Cc4ccccc4)c4ccccc4n3c2=O)cc1
[1]
  TGI: 25.1 µM
[2]
  TGI: 99.6 µM
[3]
  TGI: > 100 µM
[4]
  TGI: 99.5 µM
[5]
  TGI: > 100 µM
[6]
  TGI: 45 µM
[7]
  TGI: > 100 µM
[8]
  TGI: > 100 µM
[9]
  TGI: > 100 µM
[10]
  TGI: > 100 µM
[11]
  TGI: > 100 µM
[12]
  TGI: > 100 µM
[13]
  TGI: > 100 µM
[14]
  TGI: > 100 µM
[15]
  TGI: 12.2 µM
[16]
  TGI: 95 µM
[17]
  TGI: > 100 µM
[18]
  TGI: > 100 µM
[19]
  TGI: 63.7 µM
[20]
  TGI: > 100 µM
[21]
  TGI: > 100 µM
[22]
  TGI: > 100 µM
[23]
  TGI: > 100 µM
[24]
  TGI: > 100 µM
[25]
  TGI: > 100 µM
[26]
  TGI: > 100 µM
[27]
  TGI: > 100 µM
[28]
  TGI: > 100 µM
[29]
  TGI: 97.4 µM
[30]
  TGI: > 100 µM
[31]
  TGI: > 100 µM
[32]
  TGI: 80.7 µM
[33]
  TGI: > 100 µM
[34]
  TGI: 43.6 µM
[35]
  TGI: > 100 µM
[36]
  TGI: > 100 µM
[37]
  TGI: 32.4 µM
[38]
  TGI: 61.8 µM
[39]
  TGI: > 100 µM
[40]
  TGI: 41.8 µM
[41]
  TGI: 34.3 µM
[42]
  TGI: > 100 µM
[43]
  TGI: > 100 µM
[44]
  TGI: > 100 µM
[45]
  TGI: > 100 µM
[46]
  TGI: 80 µM
[47]
  TGI: 41.8 µM
[48]
  TGI: > 100 µM
[49]
  TGI: > 100 µM
[50]
  TGI: > 100 µM
[51]
  TGI: 58.1 µM
[52]
  TGI: 55 µM
[53]
  TGI: > 100 µM
[54]
  TGI: > 100 µM
